Data as given in patent publication US20260022142A1, “MACROCYCLIC IMMUNOMODULATORS” (Bristol-Myers Squibb Company, priority 2022, published 2026).
Bridge positions count the residues as written; N and C are the ends. Square brackets hold non-standard residues; d marks the D form. Peptide text beside a SMILES is read from it. * marks the point of attachment. ξ: configuration not given here. Phe(4-COOH) = N[C@@H](Cc1ccc(C(=O)O)cc1)C(=O)O; Bip = N[C@@H](Cc1ccc(-c2ccccc2)cc1)C(=O)O; Phe(3-Me) = Cc1cccc(C[C@H](N)C(=O)O)c1; Cha = N[C@@H](CC1CCCCC1)C(=O)O; NMeN = CN[C@@H](CC(N)=O)C(=O)O; Thr(3ξ) = CC(O)[C@H](N)C(=O)O; hSer = N[C@@H](CCO)C(=O)O; Carboxymethyl = O=C(O)C*; Orn = NCCC[C@H](N)C(=O)O; Aun = NCCCCCCCCCCC(=O)O; Dab = NCC[C@H](N)C(=O)O; AEEA = NCCOCCOCC(=O)O

Biological target: T1, PD-1/PD-L1 interaction (PE-labeled human PD-L1-Ig binding to Jurkat cell line over-expressing human PD-1) (Homo sapiens, UniProt Q15116)
T1 construct: expressed in transfected cells; host or cells: Jurkat
T1 sequence (Q15116 25-288): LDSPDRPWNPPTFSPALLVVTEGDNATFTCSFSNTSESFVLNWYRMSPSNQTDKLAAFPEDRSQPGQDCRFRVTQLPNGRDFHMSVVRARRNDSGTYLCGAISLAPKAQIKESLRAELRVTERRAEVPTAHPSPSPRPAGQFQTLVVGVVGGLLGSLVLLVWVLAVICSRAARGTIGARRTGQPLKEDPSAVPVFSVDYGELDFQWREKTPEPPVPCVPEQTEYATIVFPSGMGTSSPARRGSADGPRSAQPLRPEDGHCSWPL
Assay: Jurkat-PD-1 Cell Binding High-Content Screening Assay (CBA)
Format: cell-based
Conditions: Jurkat cell line over-expressing human PD-1; PE-labeled PD-L1-Ig 20 nM final; read-out: Jurkat hPD1-PDL1 IC50
Procedure, shortened: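 Binding of fluorescent PD-L1-Ig (20 nM final) to Jurkat-PD-1 cells was measured by automated imaging after 1 h, following a 2 h compound pre-treatment at 37° C.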

IC50 | SMILES
8.7 nM | CC(C)C[C@H]1NC(=O)[C@H](CCCN)NC(=O)[C@H](C(C)C)NC(=O)[C@H](Cc2ccc(-c3ccccc3)cc2)NC(=O)[C@H](C(C)C)NC(=O)[C@H](Cc2c[nH]c3ccccc23)NC(=O)[C@H](CC(=O)O)NC(=O)[C@H](Cc2ccc(OCC(=O)O)cc2)NC(=O)[C@H](CCCNC(=N)N)NC(=O)CSC[C@@H](C(=O)N[C@@H](CCCN)C(=O)NCCCCCCCCCCC(=O)O)NC(=O)[C@H](CCO)NC(=O)[C@H](C(C)C)NC(=O)[C@H](CC2CCCCC2)NC(=O)[C@H](CCN)NC1=O [Compound 3339] ({CH2CO}-RY(Carboxymethyl)DWV[Bip]V[Orn][dL][Dab][Cha]V[hSer]C[Orn][Aun]-OH; thioether N-14)
8.7 nM | Cc1cccc(C[C@@H]2NC(=O)[C@H](CC(=O)O)NC(=O)[C@H](Cc3ccc(OCC(=O)O)cc3)NC(=O)[C@H](C(C)O)NC(=O)CSC[C@@H](C(=O)N(C)[C@@H](CC(N)=O)C(=O)NCCCCCCCCCCC(=O)O)NC(=O)[C@H](CCCCN)NC(=O)[C@H](C(C)C)NC(=O)[C@H](CC3CCCCC3)NC(=O)[C@H](CCN)NC(=O)[C@@H](CC(C)C)NC(=O)[C@H](CCCN)NC(=O)[C@H](C(C)C)NC(=O)[C@H](Cc3ccc(-c4ccccc4)cc3)NC(=O)[C@H](C(C)C)NC2=O)c1 (stereo partly drawn) [Compound 3340] ({CH2CO}-[Thr(3ξ)]Y(Carboxymethyl)D[Phe(3-Me)]V[Bip]V[Orn][dL][Dab][Cha]VKC[NMeN][Aun]-OH; thioether N-14)
7.4 nM | CC(=O)NCCCC[C@@H]1NC(=O)[C@H](C(C)C)NC(=O)[C@H](CC2CCCCC2)NC(=O)[C@H](CCN)NC(=O)[C@@H](CC(C)C)NC(=O)[C@H](CCCN)NC(=O)[C@H](C(C)C)NC(=O)[C@H](Cc2ccc(-c3ccccc3)cc2)NC(=O)[C@H](C(C)C)NC(=O)[C@H](Cc2c[nH]c3ccccc23)NC(=O)[C@H](CC(=O)O)NC(=O)[C@H](Cc2ccc(OCC(=O)O)cc2)NC(=O)[C@H](CCCNC(=N)N)NC(=O)CSC[C@@H](C(=O)NCCOCCOCC(=O)NCCCCCCCCCCC(=O)O)NC1=O [Compound 3341] ({CH2CO}-RY(Carboxymethyl)DWV[Bip]V[Orn][dL][Dab][Cha]VK(Ac)C[AEEA][Aun]-OH; thioether N-14)
38.3 nM | Cc1cccc(C[C@@H]2NC(=O)[C@H](CC(=O)O)NC(=O)[C@H](Cc3ccc(OCC(=O)O)cc3)NC(=O)[C@H](CCCNC(=N)N)NC(=O)CSC[C@@H](C(=O)N[C@@H](CCN)C(=O)NCCCCCCCCCCC(=O)O)NC(=O)[C@H](CCC(=O)O)NC(=O)[C@H](C(C)C)NC(=O)[C@H](CC3CCCCC3)NC(=O)[C@H](CCN)NC(=O)[C@@H](CC(C)C)NC(=O)[C@H](CCCN)NC(=O)[C@H](Cc3ccc(O)cc3)NC(=O)[C@H](Cc3ccc(-c4ccccc4)cc3)NC(=O)[C@H](CC(C)C)NC2=O)c1 [Compound 3342] ({CH2CO}-RY(Carboxymethyl)D[Phe(3-Me)]L[Bip]Y[Orn][dL][Dab][Cha]VEC[Dab][Aun]-OH; thioether N-14)
66.2 nM | CC(C)C[C@H]1NC(=O)[C@H](CCCN)NC(=O)[C@H](Cc2ccc(O)cc2)NC(=O)[C@H](Cc2ccc(-c3ccccc3)cc2)NC(=O)[C@H](C(C)C)NC(=O)[C@H](Cc2c[nH]c3ccccc23)NC(=O)[C@H](CC(=O)O)NC(=O)[C@H](Cc2ccc(OCC(=O)O)cc2)NC(=O)[C@H](CCCNC(=N)N)NC(=O)CSC[C@@H](C(=O)N[C@@H](CCN)C(=O)NCCCCCCCCCCC(=O)O)NC(=O)[C@H](Cc2ccc(O)cc2)NC(=O)[C@H](C(C)C)NC(=O)[C@H](CC2CCCCC2)NC(=O)[C@H](CCN)NC1=O [Compound 3343] ({CH2CO}-RY(Carboxymethyl)DWV[Bip]Y[Orn][dL][Dab][Cha]VYC[Dab][Aun]-OH; thioether N-14)

The next lines start with the molecule.

SMILES | IC50
Cc1cccc(C[C@@H]2NC(=O)[C@H](CC(=O)O)NC(=O)[C@H](Cc3ccc(OCC(=O)O)cc3)NC(=O)[C@H](CCCNC(=N)N)NC(=O)CSC[C@@H](C(=O)N(C)[C@@H](CC(N)=O)C(=O)NCCOCCOCC(=O)NCCCCCCCCCCC(=O)O)NC(=O)[C@H](CCCN)NC(=O)[C@H](C(C)C)NC(=O)[C@H](CC3CCCCC3)NC(=O)[C@H](CCN)NC(=O)[C@@H](CC(C)C)NC(=O)[C@H](CCN)NC(=O)[C@H](C(C)C)NC(=O)[C@H](Cc3ccc(-c4ccccc4)cc3)NC(=O)[C@H](C(C)C)NC2=O)c1 [Compound 3321] ({CH2CO}-RY(Carboxymethyl)D[Phe(3-Me)]V[Bip]V[Dab][dL][Dab][Cha]V[Orn]C[NMeN][AEEA][Aun]-OH; thioether N-14) | 51 nM
Cc1cccc(C[C@@H]2NC(=O)[C@H](CC(=O)O)NC(=O)[C@H](Cc3ccc(OCC(=O)O)cc3)NC(=O)[C@H](C(C)O)NC(=O)CSC[C@@H](C(=O)N(C)[C@@H](CC(N)=O)C(=O)NCCOCCOCC(=O)NCCCCCCCCCCC(=O)O)NC(=O)[C@H](CCCN)NC(=O)[C@H](C(C)C)NC(=O)[C@H](CC3CCCCC3)NC(=O)[C@H](CCN)NC(=O)[C@@H](CC(C)C)NC(=O)[C@H](CCN)NC(=O)[C@H](C(C)C)NC(=O)[C@H](Cc3ccc(-c4ccccc4)cc3)NC(=O)[C@H](C(C)C)NC2=O)c1 (stereo partly drawn) [Compound 3322] ({CH2CO}-[Thr(3ξ)]Y(Carboxymethyl)D[Phe(3-Me)]V[Bip]V[Dab][dL][Dab][Cha]V[Orn]C[NMeN][AEEA][Aun]-OH; thioether N-14) | 36.8 nM
Cc1cccc(C[C@@H]2NC(=O)[C@H](CC(=O)O)NC(=O)[C@H](Cc3ccc(C(=O)O)cc3)NC(=O)[C@H](Cc3ccc(OCC(=O)O)cc3)NC(=O)CSC[C@@H](C(=O)NCCOCCOCC(=O)NCCCCCCCCCCC(=O)O)NC(=O)[C@H](CCO)NC(=O)[C@H](C(C)C)NC(=O)[C@H](CC3CCCCC3)NC(=O)[C@H](CCN)NC(=O)[C@@H](CC(C)C)NC(=O)[C@H](CCCN)NC(=O)[C@H](C(C)C)NC(=O)[C@H](Cc3ccc(-c4ccccc4)cc3)NC(=O)[C@H](C(C)C)NC2=O)c1 [Compound 3327] ({CH2CO}-Y(Carboxymethyl)[Phe(4-COOH)]D[Phe(3-Me)]V[Bip]V[Orn][dL][Dab][Cha]V[hSer]C[AEEA][Aun]-OH; thioether N-14) | 31.4 nM
CC(=O)NCCCC[C@@H]1NC(=O)[C@H](Cc2ccc(-c3ccccc3)cc2)NC(=O)[C@H](C(C)C)NC(=O)[C@H](Cc2c[nH]c3ccccc23)NC(=O)[C@H](CC(=O)O)NC(=O)[C@H](Cc2ccc(OCC(=O)O)cc2)NC(=O)[C@H](CCCNC(=N)N)NC(=O)CSC[C@@H](C(=O)NCCOCCOCC(=O)NCCCCCCCCCCC(=O)O)NC(=O)[C@H](C(C)O)NC(=O)[C@H](C(C)C)NC(=O)[C@H](CC2CCCCC2)NC(=O)[C@H](CCN)NC(=O)[C@@H](CC(C)C)NC(=O)[C@H](CCCN)NC1=O (stereo partly drawn) [Compound 3335] ({CH2CO}-RY(Carboxymethyl)DWV[Bip]K(Ac)[Orn][dL][Dab][Cha]V[Thr(3ξ)]C[AEEA][Aun]-OH; thioether N-14) | 8.2 nM
CC(C)C[C@H]1NC(=O)[C@H](CCCN)NC(=O)[C@H](C(C)C)NC(=O)[C@H](Cc2ccc(-c3ccccc3)cc2)NC(=O)[C@H](CCO)NC(=O)[C@H](Cc2c[nH]c3ccccc23)NC(=O)[C@H](CC(=O)O)NC(=O)[C@H](Cc2ccc(OCC(=O)O)cc2)NC(=O)[C@H](CCCNC(=N)N)NC(=O)CSC[C@@H](C(=O)N[C@@H](CCCN)C(=O)NCCCCCCCCCCC(=O)O)NC(=O)[C@H](C(C)O)NC(=O)[C@H](C(C)C)NC(=O)[C@H](CC2CCCCC2)NC(=O)[C@H](CCN)NC1=O (stereo partly drawn) [Compound 3338] ({CH2CO}-RY(Carboxymethyl)DW[hSer][Bip]V[Orn][dL][Dab][Cha]V[Thr(3ξ)]C[Orn][Aun]-OH; thioether N-14) | 27.4 nM
